ChEMBL document CHEMBL1136903, “Spiroimidazolidinone NPC1L1 inhibitors. 1: Discovery by 3D-similarity-based virtual screening” (Bioorg Med Chem Lett, 2009)
The source made the active and inactive calls. No cut-off for these calls is given here.

Key:
[1] = target: T1, NPC1-like intracellular cholesterol transporter 1 (Homo sapiens, UniProt Q9UHC9); assay: Displacement of [35S](2S,3S,4S,5R,6S)-6-(4-((2S,3R)-3-((S)-3-(4-fluorophenyl)-3-hydroxypropyl)-1-(4-(3-(methylsulfonamido)prop-1-ynyl)phenyl)-4-oxoazetidin-2-yl)phenoxy)-3,4,5-trihydroxytetrahydro-2H-pyran-2-carboxylic acid from human recombinant NPC1L1 expressed in HEK293 cells; assay type: cell-based
T1 sequence (Q9UHC9 whole entry): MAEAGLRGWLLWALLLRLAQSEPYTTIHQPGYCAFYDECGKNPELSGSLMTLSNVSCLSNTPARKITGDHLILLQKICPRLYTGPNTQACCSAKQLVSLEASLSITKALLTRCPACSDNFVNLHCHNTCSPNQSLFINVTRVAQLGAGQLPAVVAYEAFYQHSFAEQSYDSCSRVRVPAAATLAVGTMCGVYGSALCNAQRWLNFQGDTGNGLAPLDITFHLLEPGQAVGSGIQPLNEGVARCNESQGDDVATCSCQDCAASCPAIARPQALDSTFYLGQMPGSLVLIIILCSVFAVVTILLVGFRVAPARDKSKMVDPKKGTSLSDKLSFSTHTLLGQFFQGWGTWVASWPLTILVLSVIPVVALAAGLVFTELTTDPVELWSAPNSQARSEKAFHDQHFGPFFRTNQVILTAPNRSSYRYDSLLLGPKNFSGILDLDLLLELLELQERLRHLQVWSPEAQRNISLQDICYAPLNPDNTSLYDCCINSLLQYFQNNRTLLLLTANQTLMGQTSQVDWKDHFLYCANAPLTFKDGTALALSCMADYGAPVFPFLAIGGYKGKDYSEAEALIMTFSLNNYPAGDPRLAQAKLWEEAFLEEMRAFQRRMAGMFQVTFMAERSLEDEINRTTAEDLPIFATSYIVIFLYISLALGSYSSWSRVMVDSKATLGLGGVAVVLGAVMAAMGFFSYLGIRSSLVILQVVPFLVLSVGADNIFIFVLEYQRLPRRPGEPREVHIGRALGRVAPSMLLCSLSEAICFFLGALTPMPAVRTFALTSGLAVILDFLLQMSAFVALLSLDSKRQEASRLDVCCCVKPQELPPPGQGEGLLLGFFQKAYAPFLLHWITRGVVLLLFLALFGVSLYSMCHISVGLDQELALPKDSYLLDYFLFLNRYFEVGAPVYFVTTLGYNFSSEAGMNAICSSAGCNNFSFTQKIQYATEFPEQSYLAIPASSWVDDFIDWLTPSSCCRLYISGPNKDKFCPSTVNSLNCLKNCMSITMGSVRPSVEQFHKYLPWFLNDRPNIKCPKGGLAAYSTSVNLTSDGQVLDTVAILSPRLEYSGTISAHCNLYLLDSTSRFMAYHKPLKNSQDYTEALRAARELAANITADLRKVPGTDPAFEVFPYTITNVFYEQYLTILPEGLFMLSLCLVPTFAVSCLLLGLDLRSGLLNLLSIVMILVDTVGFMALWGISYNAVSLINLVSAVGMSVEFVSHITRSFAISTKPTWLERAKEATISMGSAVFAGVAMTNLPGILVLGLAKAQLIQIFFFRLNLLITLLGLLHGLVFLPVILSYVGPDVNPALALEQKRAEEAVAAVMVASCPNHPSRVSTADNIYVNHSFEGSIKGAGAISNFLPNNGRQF

[2] = target: T1, NPC1-like intracellular cholesterol transporter 1; assay: Displacement of [35S](2S,3S,4S,5R,6S)-6-(4-((2S,3R)-3-((S)-3-(4-fluorophenyl)-3-hydroxypropyl)-1-(4-(3-(methylsulfonamido)prop-1-ynyl)phenyl)-4-oxoazetidin-2-yl)phenoxy)-3,4,5-trihydroxytetrahydro-2H-pyran-2-carboxylic acid from NPC1L1 in human enterocyte brush border membrane
[3] = Displacement of [35S](2S,3S,4S,5R,6S)-6-(4-((2S,3R)-3-((S)-3-(4-fluorophenyl)-3-hydroxypropyl)-1-(4-(3-(methylsulfonamido)prop-1-ynyl)phenyl)-4-oxoazetidin-2-yl)phenoxy)-3,4,5-trihydroxytetrahydro-2H-pyran-2-carboxylic acid from NPC1L1 in hamster enterocyte brush border membrane; set-up: species or system Cricetinae
[4] = Displacement of [35S](2S,3S,4S,5R,6S)-6-(4-((2S,3R)-3-((S)-3-(4-fluorophenyl)-3-hydroxypropyl)-1-(4-(3-(methylsulfonamido)prop-1-ynyl)phenyl)-4-oxoazetidin-2-yl)phenoxy)-3,4,5-trihydroxytetrahydro-2H-pyran-2-carboxylic acid from NPC1L1 in guinea pig enterocyte brush border membrane; set-up: species or system Cavia porcellus
[5] = Displacement of [35S](2S,3S,4S,5R,6S)-6-(4-((2S,3R)-3-((S)-3-(4-fluorophenyl)-3-hydroxypropyl)-1-(4-(3-(methylsulfonamido)prop-1-ynyl)phenyl)-4-oxoazetidin-2-yl)phenoxy)-3,4,5-trihydroxytetrahydro-2H-pyran-2-carboxylic acid from NPC1L1 in pig enterocyte brush border membrane; set-up: species or system Sus scrofa
[6] = test system: Mus musculus; assay: Inhibition of plasma [3H]cholesterol absorption in C57BL/6 mouse at 0.2 ml in 0.25% methocel suspension, po dosed 30 mins before [3H]cholesterol administration measured after 1.5 to 5 hrs; assay type: functional, organism-based
[7] = test system: Mus musculus; assay: Inhibition of liver [3H]cholesterol absorption in C57BL/6 mouse at 0.2 ml in 0.25% methocel suspension, po dosed 30 mins before [3H]cholesterol administration measured after 1.5 to 5 hrs; assay type: functional, organism-based

Row | SMILES | IC50 [1] | IC50 [2] | IC50 [3] | IC50 [4] | IC50 [5] | inhibition [6] | inhibition [7]
1 | CC(C)(C)c1ccc(C(=O)N2CCC3(CC2)C(=O)N(CC(=O)N2CCCCC2)CN3c2ccccc2)cc1 | 2500 nM | 10000 nM | 41000 nM | 470000 nM | > 500000 nM | inactive | inactive
2 | CS(=O)(=O)NCC#CN1C(=O)[C@H](CC[C@H](O)c2ccc(F)cc2)[C@H]1c1ccc(O[C@@H]2O[C@H](C(=O)O)[C@@H](O)[C@H](O)[C@H]2O)cc1 | 7 nM | 20 nM | 22 nM | 71 nM | 13 nM | – | –
3 | O=C([C@@H]1C[C@@H](c2ccccc2)CN1C(=O)c1ccccc1)N1CCC2(C=Cc3ccccc32)CC1 | 660 nM | 5300 nM | 62000 nM | 118000 nM | > 500000 nM | – | –
4 | O=C(O)[C@H]1O[C@@H](Oc2ccc([C@@H]3[C@@H](CC[C@H](O)c4ccc(F)cc4)C(=O)N3c3ccc(F)cc3)cc2)[C@H](O)[C@@H](O)[C@@H]1O | 300 nM | 300 nM | 650 nM | 3300 nM | 320 nM | – | –
